SMILES strings stand for the structures.

Test [1] deals with T1, recombinant human pro-heparanase (H60) (Homo sapiens, UniProt Q9Y251).
T1 construct: Heparanase maturation involves the removal of the signal peptide, transforming the 65 kDa pre-pro-heparanase into a 60 kDa pro-heparanase; made in house
T1 sequence (Q9Y251 36-543): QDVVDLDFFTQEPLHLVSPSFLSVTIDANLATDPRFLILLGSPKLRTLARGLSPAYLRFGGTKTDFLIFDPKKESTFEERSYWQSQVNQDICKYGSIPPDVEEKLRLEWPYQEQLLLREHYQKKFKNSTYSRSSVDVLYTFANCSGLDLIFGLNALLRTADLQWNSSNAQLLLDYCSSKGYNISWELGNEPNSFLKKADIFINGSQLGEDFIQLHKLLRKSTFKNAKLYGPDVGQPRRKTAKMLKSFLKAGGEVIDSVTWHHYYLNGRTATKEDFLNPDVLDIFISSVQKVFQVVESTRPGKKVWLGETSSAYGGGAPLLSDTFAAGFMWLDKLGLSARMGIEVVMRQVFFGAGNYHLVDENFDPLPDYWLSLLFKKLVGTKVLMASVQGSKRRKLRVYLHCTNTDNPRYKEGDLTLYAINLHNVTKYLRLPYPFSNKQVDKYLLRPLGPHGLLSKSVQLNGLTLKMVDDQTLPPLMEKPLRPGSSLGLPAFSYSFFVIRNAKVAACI
Put plainly: Pro-heparanase (H60) activation in a cell-based assay. As to conditions: inhibition of pro-heparanase activation in CHO cells; NI = no inhibition. As for the experimental part: Pro-heparanase (H60) activation in a cell-based assay: Chinese hamster ovary (CHO) cells were grown in complete F12 medium supplemented with 10% fetal calf serum (FCS). […] The plates were incubated for 24 hours in a 37° C. humidified incubator with 5% CO2. […] The plates were further incubated for additional 4 hours. The pro-heparanase was allowed to internalize by the cells and further processed to generate the active 53 kDa heparanase. At the end of the incubation, the cells were lysed by three consecutive cycles of freezing and thawing in a −80° C. freezer and a 37° C. shaker.
The rigidified compounds described herein were tested for inhibition of pro-heparanase activation in the cell-based assay described above.

The target in test [2] is T2, heparanase (H53) (Homo sapiens, UniProt Q9Y251).
T2 construct: The 45 kDa major subunit and the 8 kDa small subunit hetero-complex to form the 53 kDa active form of heparanase
T2 sequence (Q9Y251 36-109 limits assumed): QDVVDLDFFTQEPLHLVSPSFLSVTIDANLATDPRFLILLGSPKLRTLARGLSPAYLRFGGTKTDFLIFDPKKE
T2 sequence (Q9Y251 158-543 limits assumed): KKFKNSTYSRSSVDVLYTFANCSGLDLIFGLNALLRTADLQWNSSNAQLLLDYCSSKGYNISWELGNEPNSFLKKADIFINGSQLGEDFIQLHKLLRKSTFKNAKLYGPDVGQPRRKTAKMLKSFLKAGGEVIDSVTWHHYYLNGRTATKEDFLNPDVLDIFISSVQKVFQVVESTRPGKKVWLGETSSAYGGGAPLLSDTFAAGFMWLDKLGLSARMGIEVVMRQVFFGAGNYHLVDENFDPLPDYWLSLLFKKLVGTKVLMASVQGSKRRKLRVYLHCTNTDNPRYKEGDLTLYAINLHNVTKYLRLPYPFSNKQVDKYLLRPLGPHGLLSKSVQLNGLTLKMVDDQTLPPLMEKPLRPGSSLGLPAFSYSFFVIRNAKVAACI
Put plainly: Heparanase (H53) assay (DMB assay). Format: biochemical. As to conditions: for dual activity: inhibition of pro-heparanase activation (H60) and of heparanase activity (H53): compounds with an acidic group; for IC50: inhibition of heparanase activity, DMB assay, NI = no inhibition. As to the method: Heparanase (H53) assay: The rigidified compounds described herein were tested for inhibition of heparanase activity in the DMB assay described in U.S. Pat. No. 6,190,875. IC50 was calculated from inhibition curves of all active compounds.

For test [3], the target named is T3, vascular endothelial growth factor (VEGF) (Homo sapiens, UniProt P15692).
T3 sequence (P15692 27-191 isoform P15692-4): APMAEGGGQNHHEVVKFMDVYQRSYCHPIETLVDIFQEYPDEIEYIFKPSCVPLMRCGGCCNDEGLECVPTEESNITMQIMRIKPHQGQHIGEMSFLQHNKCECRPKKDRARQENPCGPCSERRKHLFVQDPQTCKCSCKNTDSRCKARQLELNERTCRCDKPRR
The experiment in a line: ELISA for determination of binding of VEGF to heparin. As to conditions: for IC50: inhibition of VEGF binding to heparin, NI = no inhibition; for inhibition of VEGF binding to heparin: inhibition towards both growth factors. As for the experimental part:
Enzyme-linked immunosorbent assay (ELISA) for determination of binding of vascular endothelial growth factor (VEGF) to heparin: 96-well microplates were coated for 2 hours. at 23-25° C. with 5 μg/ml heparin-albumin (Rimon Biotech) and blocked with 1% bovine serum albumin (BSA) in phosphate buffer (PBS) with 0.05% Tween and 0.01% thimerosal for 2 hours. VEGF was added to the plates at a concentration of 10 ng/ml and the plates were thereafter incubated for 45 minutes at 23-25° C. The amount of VEGF bound to heparin was detected using anti-VEGF monoclonal antibody (Sigma Cat. No. V4758) at a concentration of 0.26 μg/ml and secondary antibodies Sheep anti-mouse IgG linked to horseradish peroxidase (1:2000) using 3,3′,5,5′-tetramethylbenzidine (TMB, Pierce Cat. No. 34021) as a substrate for peroxidase. The plates were read at 450 nm with a reference wavelength of 630 nm using a VERSAmax plate reader. […] Percent inhibition was calculated as compared with a control pre-incubated with a solution of 1% DMSO and the results are presented in Table 3 below.

Test [4] deals with β-FGF (Homo sapiens, UniProt P09038). The experiment in a line: ELISA for determination of binding of β-FGF to heparin. As to conditions: for IC50: inhibition of β-FGF binding to heparin, NI = no inhibition; for inhibition of β-FGF binding to heparin: inhibition towards both growth factors. As to the method: ELISA for determination of binding of β-FGF to heparin: 96-well microplates were coated for 2 hours at 23-25° C. with 5 μg/ml heparin-albumin (Rimon Biotech) and blocked with 1% BSA in PBS, with 0.05% Tween, and 0.01% thimerosal for 2 hours. β-FGF was added to the plates at a concentration of 10 ng/ml and plates were incubated for 45 minutes at 23-25° C. The amount of β-FGF bound to heparin was detected using anti-FGF monoclonal antibody (Sigma Cat. No. F6162) at a concentration of 2.5 ng/ml and secondary antibodies Sheep anti-mouse IgG linked to horseradish peroxidase (1:3000) TMB (Pierce Cat. No. 34021) was used as a substrate for peroxidase. The plates were read at 450 nm with a reference wavelength of 630 nm using a VERSAmax plate reader.

Test [5] relates to MDA-MB231 breast cancer cells. The experiment in a line: In-vitro assay for inhibition of cell invasion (MDA-MB231). In kind it is cell-based. As to conditions: Homo sapiens; MB231 cells (first value of cell); read-out: IC50 Invasion MB231/PC3/A375. As to the method: (§1) In-vitro assay for inhibition of cell invasion: The ability of the rigidified compounds described herein to inhibit cell invasion was determined quantitatively using BD Biocoat FluoroBlok Invasion System (BD, cat No. FAL354165). MDA-MB231 breast cancer cells, human prostatic cancer PC3 cells and A375 melanoma cells were used for this assay. Cells (5×10^4 cells/ml) were pre-incubated with the compounds for 48 hours prior to the assay, at 37° C. and a 5% CO2 atmosphere.
(§2) Serial dilutions of each compound starting from a concentration which was previously found to be non-toxic to the cells (using Oxygen Biosensor System, BD), were prepared in DMSO and added to the cells to a final concentration of 1% DMSO. At the end of the pre-incubation, cells at each compound concentration were counted and 2×10^4 cells/well in basic medium were applied onto the top chamber of the insert of the Invasion system. 750 μl complete medium with 5% fetal calf serum was added to the bottom chambers. The tested compound was applied to the top and bottom chambers. Invasion plates were incubated for 22 hours at 37° C. and a 5% CO2 atmosphere.
At the end of the incubation, medium was aspirated from the upper chambers and the inserts were transferred to a plate containing Calcein AM (Molecular Probes), 4 μg/ml and incubated for 90 minutes at 37° C. and a 5% CO2 atmosphere.
(§3) Fluorescence of invaded cells was read in a fluorescence plate reader BMG POLARstar Galaxy, BMG at excitation/emission wavelength of 485/530 nm.

In test [6] the test system is human prostatic cancer PC3 cells. Put plainly: In-vitro assay for inhibition of cell invasion (PC3). Format: cell-based. As to conditions: PC-3, PC3 cells (second value of cell), read-out: IC50 Invasion MB231/PC3/A375. As to the method: as §1
as §2, with “atmosphere. […]” for “atmosphere.”
as §3

Chain of β-FGF (P09038 143-288): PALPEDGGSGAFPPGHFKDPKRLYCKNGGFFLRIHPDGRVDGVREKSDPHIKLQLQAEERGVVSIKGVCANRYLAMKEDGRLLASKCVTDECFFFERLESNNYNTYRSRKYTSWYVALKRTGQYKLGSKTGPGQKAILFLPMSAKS

In the case of `O=C(O)CCCN1C(=O)c2cc3oc(-c4ccc(Cl)cc4)cc3n2C1=S` [Compound 5, 4-[2-(4-chloro-phenyl)-6-oxo-4-thioxo-6H-1-oxa-3b,5-diaza-cyclopenta[a]pentalen-5-yl]-butyric acid], the IC50 in test [1] was determined as 1000 nM; in test [2], 11800 nM; in test [3] it was 6000 nM; in test [4], 2100 nM. The “dual activity: inhibition of pro-heparanase activation (H60) and of heparanase activity (H53)” value (shortened to “dual activity: inhibition”) in test [2] is “dual activity”.
In the case of `CC(C)(CC(=O)O)CN1C(=O)c2cc3oc(-c4ccc(Cl)cc4)cc3n2C1=S` [Compound 11, 4-[2-(4-chloro-phenyl)-6-oxo-4-thioxo-6H-1-oxa-3b,5-diaza-cyclopenta[a]pentalen-5-yl]-3,3-dimethyl-butyric acid], the IC50 in test [1] stood at 270 nM; in test [2], 37000 nM; in test [3], 1200 nM; in test [4], 1800 nM; in test [5] it was 750 nM; in test [6], 1400 nM. Also, the “dual activity: inhibition” value in test [2] was “dual activity”.
Regarding `O=C(O)CCCN1C(=O)c2cc3oc(-c4cccc(C(F)(F)F)c4)cc3n2C1=S` [Compound 26], the IC50 in test [1] was 780 nM; in test [2] it was 10200 nM; in test [3] it was 4800 nM; in test [4], 1700 nM.
With `CCOC(=O)CCCN1C(=O)c2cc3sc(-c4ccc([N+](=O)[O-])cc4)cc3n2C1=S` [Compound 31, 4-[2-(4-nitro-phenyl)-6-oxo-4-thioxo-6H-1-thia-3b,5-diaza-cyclopenta[a]pentalen-5-yl]-butyric acid ethyl ester], the IC50 was 560 nM in test [1], 74000 nM in test [2], 70 nM in test [3] and 280 nM in test [4]. Moreover, the “inhibition of VEGF binding to heparin” value in test [3] was “sub-micromolar”. Moreover, the “inhibition of β-FGF binding to heparin” value in test [4] was “sub-micromolar”.
On to `CN1CCN(C(=O)CC(C)(C)CN2C(=O)c3cc4oc(-c5ccc(Cl)cc5)cc4n3C2=S)CC1` [Compound 16, 2-(4-Chloro-phenyl)-5-[2,2-dimethyl-4-(4-methyl-piperazin-1-yl)-4-oxo-butyl]-4-thioxo-4,5-dihydro-1-oxa-3b,5-diaza-cyclopenta[a]pentalen-6-one], for which the IC50 in test [1] worked out at 90 nM; in test [3], 290 nM; in test [4], 200 nM; in test [5], 35 nM. Moreover, the “inhibition of VEGF binding to heparin” value in test [3] is listed as “sub-micromolar”. Moreover, the “inhibition of β-FGF binding to heparin” value in test [4] is given as “sub-micromolar”.
`CCN(CC)C(=O)CCCN1C(=O)c2cc3oc(-c4ccc(Cl)cc4)cc3n2C1=S` [Compound 6, 4-[2-(4-chloro-phenyl)-6-oxo-4-thioxo-6H-1-oxa-3b,5-diaza-cyclopenta[a]pentalen-5-yl]-N,N-diethyl-butyramide]: the IC50 is 1200 nM in test [1], 160 nM in test [3], 150 nM in test [4] and 170 nM in test [5]. Further, the “inhibition of VEGF binding to heparin” value in test [3] is recorded as “sub-micromolar”. In addition, the “inhibition of β-FGF binding to heparin” value in test [4] is “sub-micromolar”.
In the case of `CN(CC(=O)O)C(=O)CC(C)(C)CN1C(=O)c2cc3oc(-c4ccc(Cl)cc4)cc3n2C1=S` [Compound 21, ({4-[2-(4-Chloro-phenyl)-6-oxo-4-thioxo-6H-1-oxa-3b,5-diaza-cyclopenta[a]pentalen-5-yl]-3,3-dimethyl-butyryl}-methyl-amino)-acetic acid], the IC50 in test [1] is 1000 nM; in test [2], 66200 nM; in test [3], 7300 nM; in test [4], 6500 nM. For the same molecule, the “dual activity: inhibition” value in test [2] is on record as “dual activity”.
As for `O=C(O)CCCN1C(=O)c2cc3oc(-c4ccc([N+](=O)[O-])cc4)cc3n2C1=S` [Compound 2, 4-[2-(4-nitro-phenyl)-6-oxo-4-thioxo-6H-1-oxa-3b,5-diaza-cyclopenta[a]pentalen-5-yl]-butyric acid], the IC50 was found to be 1000 nM in test [1]; 9000 nM in test [2]; 1800 nM in test [3]; 1700 nM in test [4]; 2600 nM in test [5]. Besides, the “dual activity: inhibition” value in test [2] was “dual activity”.

Values taken from US7795255B2, “Rigidified compounds for modulating heparanase activity” (InSight Biopharmaceuticals Ltd., priority 2005, dated 2010).
